Experimental data: US20120142730A1 (priority 2010, published 2012)

System: subjects with relapsing remitting multiple sclerosis (RRMS)
Assay: ALLEGRO phase III trial: disability endpoints (EDSS, MSFC)
Format: in vivo, human
Conditions: for Patients with confirmed (3 months) EDSS progression: after 24 months
Protocol: Eligible subjects were equally randomized 1:1 into one of the following treatment arms: • 1. […] 21, 2007 (see, page 10, line 5 to page 11, line 3). • 2. Matching placebo for laquinimod arm: one capsule is administered once daily. Secondary endpoints were disability progression as measured by the EDSS and the Multiple Sclerosis Functional Composite (MSFC). Confirmed disability progression was defined as an increase of ≧1.0 EDSS point from baseline if baseline EDSS was between 0 and 5.0, or an increase of ≧0.5 point if baseline EDSS was ≧5.5. In order to confirm EDSS progression, these increases had to be sustained for at least three months. Additional predefined disability endpoints include the proportion of patients without confirmed disability progression at 24 months; confirmed disability progression (defined as change in EDSS scores≧1.0 points for baseline EDSS 0 to 5.0 or ≧5.5) sustained for six months; the accumulation of physical disability as measured by mean EDSS and the mean change in EDSS from baseline to last observed value (LOV). For the MSFC, the measure was the total MSFC z score at 24 months (including patients who terminated after 12 months). The 9-hole peg test (9HPT) and the Paced Auditory Serial Addition Test (PASAT) were performed three times at screening to reduce confounding training effects during the trial. The analysis of the accumulation of physical disability is based on Cox's Proportional Hazard model. The analysis of MSFC is based on baseline-adjusted Analysis of Covariance. The analysis of the secondary MRI endpoints is based on baseline-adjusted Negative Binomial Regression. To control against type-I error, the secondary endpoints were analyzed only after a significant effect was found for the primary endpoint. Likewise, the study's overall type-I error was further controlled in the analysis of the secondary endpoints by applying the following gate-keeping approach: both the cumulative number of new/enlarging T2 and the cumulative number of GdE lesions at months 12 and 24 were tested simultaneously and needed to be statistically significant at p<0.05, or one needed to be significant at p<0.025 if the other endpoint was not statistically significant at the 5% level. If the above condition was met, the study then proceeded to the analysis of the confirmed EDSS progression endpoint, if this endpoint was significant at 5% level, the analysis was done for the total MSFC z-scores. The analysis of risk to confirmed disability progression using the ITT cohort was based on Cox's Proportional Hazard model adjusted to baseline EDSS, log of the prior 2 year number of relapses +1 and geographical region. The MSFC at month 24 was analyzed using a baseline-adjusted ANCOVA (SAS@PROC GLM) with baseline MSFC as 1 degree of freedom covariate and baseline EDSS score, log of the 2-year prior relapse rate +1 and country or geographical region as additional covariates.

[1] = 0.6 mg daily oral, listed as laquinimod

Compound: CCN(C(=O)c1c(O)c2c(Cl)cccc2n(C)c1=O)c1ccccc1 [Laquinimod, laquinimod]
- Median EDSS score at LOV (0.6 mg daily oral): 2.5
- Decrease in the risk for 6 month confirmed EDSS progression (0.6 mg daily oral vs placebo): 48%
- Reduction in risk of confirmed progression requiring persistence of EDSS change at the last available visit (0.6 mg daily oral vs placebo): 35%
- Time to confirmed (3 Ms) progression EDSS: reduction of risk to progress (0.6 mg daily oral vs placebo): 36% reduction of risk
- Adjusted mean total MSFC z score at 24 months, difference from placebo (0.6 mg daily oral vs placebo, p=0.5893): no significant differences
- Time to confirmed (3 Ms) progression EDSS: reduction of risk to progress (0.6 mg daily oral vs placebo, listed as laquinimod): 36%
- Patients with confirmed (3 months) EDSS progression (0.6 mg daily oral): 9.8% progressed
- Patients with confirmed (3 months) EDSS progression [1]: 9.8%
- Mean EDSS score at LOV (0.6 mg daily oral, baseline adjusted ANCOVA): 2.68
- Patients with no confirmed disability progression at LOV (0.6 mg daily oral, n = 550): (90.2%)
- Patients with no confirmed disability progression at LOV, number (0.6 mg daily oral, n = 550): 496
- MSFC total z score at 24 months (including early terminations after 12 months), mean [1]: 0.056
- Patients who progressed and also had a relapse during the study (post-hoc subgroup analysis, 33/54 patients): 61.1%
